Experimental data taken from PMC2909000 (Current topics in medicinal chemistry, 2009).
Where two headings read alike, the source gives them in different places.

Columns and labels:
SARS-CoV = conditions: cited from earlier work
zebrafish = conditions: cited from earlier work
cathepsin B = conditions: relative to cathepsin L
Ebola virus = conditions: cited from earlier work
human liver cathepsin L = conditions: cited from earlier work
Leishmania major = conditions: read-out: IC50, Leishmania major; cellular model of infection; ref xl; cited from earlier work
[1] = test system: bovine aortic endothelial cells; conditions: ref xl; cited from earlier work
cathepsin L = cathepsin L (Homo sapiens, UniProt P07711); format: biochemical; conditions: stoichiometric amounts of enzyme
Sequence of cathepsin L (P07711 114-333): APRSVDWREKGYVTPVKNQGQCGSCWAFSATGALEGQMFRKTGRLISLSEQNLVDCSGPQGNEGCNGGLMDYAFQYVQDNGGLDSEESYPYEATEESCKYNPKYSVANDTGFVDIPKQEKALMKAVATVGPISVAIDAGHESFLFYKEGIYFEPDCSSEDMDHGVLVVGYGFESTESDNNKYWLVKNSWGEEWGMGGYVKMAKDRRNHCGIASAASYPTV

Plasmodium falciparum = conditions: read-out: IC50, Plasmodium falciparum; cellular model of infection; ref xl; cited from earlier work
[2] = reaction of 15a in the presence of cysteine, LC/MS monitoring for products; format: physicochemical
[3] = test system: two component NS2B-NS3 Proteinase of West Nile Virus; conditions: another MLSCN Center; ref xxix, xxx; cited from earlier work

CC(C)(C)OC(=O)N[C@@H](Cc1c[nH]c2ccccc12)C(=O)NNC(=O)OCC(=O)N1CCCc2ccccc21 [Compound 19]
concentration preventing entry of SARS-CoV into cells (SARS-CoV): sub-micromolar | toxicity in zebrafish whole organism assay (zebrafish; no toxicity detected up to this concentration, ref xxx): > 100 µM | selectivity compared to cathepsin B (cathepsin B; ref xxx): > 700 fold | concentration preventing entry of Ebola virus into cells (Ebola virus): sub-micromolar | IC50 (human liver cathepsin L; read-out: IC50 against cathepsin L with a 4 hour pre-incubation, 4 hour pre-incubation, ref xxx): 0.4 nM | IC50 (human liver cathepsin L; read-out: IC50 against cathepsin L, no pre-incubation, ref xxx): 7 nM | cathepsin L activity of analogs with modified C2 carbonyl reactivity (human liver cathepsin L; ref xxxviii): as potent as the thiocarbazate

CCc1ccccc1NC(=O)CSC(=O)NNC(=O)[C@H](Cc1c[nH]c2ccccc12)NC(=O)OC(C)(C)C [Compound 15a]
IC50 (Leishmania major): 12500 nM | Toxicity (bovine aortic endothelial cells) [1]: 16 µM | products of hydrolysis (20 and 21) detected by LC/MS (cathepsin L): No products were detected | IC50 (Plasmodium falciparum): 15400 nM | Toxicity (zebrafish) (zebrafish; ref xl): >100 µM | products detected in the presence of cysteine [2]: no detectable products | Selectivity vs cathepsin B (cathepsin B; ref xl): 45-fold | IC50 (human liver cathepsin L; cathepsin L, no preincubation stated, ref xl): 56 nM | Ki (human liver cathepsin L; cathepsin L, ref xl): 0.89 nM | koff (human liver cathepsin L; cathepsin L, ref xl): 2.2e-05 s⁻¹ | IC50 (human liver cathepsin L; read-out: Cathepsin L inhibition IC50, analogs of 15a, ref xlii): 56 nM | IC50 (human liver cathepsin L; read-out: IC50(4h preincubation), cathepsin L, 4h preincubation, ref xl): 1 nM | kinetic characterization of inhibition (human liver cathepsin L; ref xl): slowly reversible inhibition

COc1ccc(S(=O)(=O)n2nc(OC(=O)c3ccccc3)cc2N)cc1 [CID 655490]
mode of inhibition of NS2B-NS3 Proteinase [3]: slow-binding, reversible, non-competitive inhibitor
